# In patent US20040110756A1, “New anthracene derivatives and their use as pharmaceutical preparations” (priority 2002, published 2004):
# Read-outs that look alike come from different tables or passages of the source.
# Key:
# Format in all cases: cell-based
# [1] = test system: human colon adenocarcinoma cell line HT 29; assay: XTT proliferation assay, HT29; conditions: HT29 cells, average of two independent experiments
# Text: (§1) For further characterization, substance 2 was investigated for its anti-proliferative effect using a panel of 12 human tumor cell lines. The cell lines used were the human glioma cell lines A172 (ATCC CRL-1620), U118 (ATCC HTB-15) and U373 (ATCC HTB-17), the rat glioma cell line C6 (ATCC CCL-107), the human lung carcinoma cell line A549, the human epidermoid carcinoma A431 (ATCC CRL-2592), the human prostate cancer cell lines DU145 (ATCC HTB-81) and PC3 (ATCC CRL-1435), the human colon adenocarcinoma cell line HT 29 (ATCC HTB-38), the human pancreas adenocarcinoma cell line ASPC1 (ATCC CRL-1682) and the human breast cancer cell lines T47D (ECACC 88062428) and MCAMB435 (NCI 914182). […]
# (§2) The adherent, growing tumor cell lines KB/HeLa, SKOV-3, SF-268, NCI-H460, ASPC1, A172, A431, A549, DU145, C6, MDAMB435, HT29, PC3, T47D, U118MG and U373MG were cultured under standard conditions in the gassing incubator at 37° C., 5% CO2 and 95% relative humidity. […] Subsequently, the cell plates were incubated for a further 3 hours in a gassing incubator and the optical density (OD490 nm) was determined in the photometer. The percentage inhibition, relative to the control, is determined by means of the OD490 nm and plotted semi-logarithmically in the form of a concentration vs. activity curve. […]
# [2] = test system: human cervix carcinoma cell line KB/HeLa; assay: XTT proliferation assay, KB/HeLa; conditions: KB/HeLa cells, 45 hours incubation
# Text: (§3) The substance of Example 2 was investigated in a proliferation test on established tumor cell lines for its anti-proliferative activity. The test used determines the cellular dehydrogenase activity and enables the cell vitality and, indirectly, the cell count to be determined. The cell lines used are the human cervix carcinoma cell line KB/HeLa (ATCC CCL17), the ovarian adenocarcinoma cell line SKOV-3 (ATCC HTB77), the human glioblastoma cell line SF-268 (NCI 503138) and the lung carcinoma cell line NCI-H460 (NCI 503473). Moreover, for investigating the effect of the substance specifically on the cell cycle, an RKOp27 cell system was used (M. Schmidt et al. Oncogene 19(20):2423-9, 2000). […]
# as §2
# [3] = test system: human glioma cell line U118; assay: XTT proliferation assay, U118MG; conditions: U-118-MG, U118MG cells, average of two independent experiments
# Text: as §1, §2
# [4] = test system: human epidermoid carcinoma A431; assay: XTT proliferation assay, A431; conditions: A-431, A431 cells, average of two independent experiments
# Text: as §1, §2
# [5] = test system: human glioma cell line A172; assay: XTT proliferation assay, A172; conditions: A 172, A172 cells, average of two independent experiments
# Text: as §1, §2
# [6] = test system: ovarian adenocarcinoma cell line SKOV-3; assay: XTT proliferation assay, SKOV-3; conditions: Homo sapiens, SK-OV-3; SKOV-3 cells, 45 hours incubation
# Text: as §3, §2
# [7] = test system: human glioblastoma cell line SF-268; assay: XTT proliferation assay, SF-268; conditions: SF-268 cells, 45 hours incubation
# Text: as §3, §2
# [8] = test system: human glioma cell line U373; assay: XTT proliferation assay, U373MG; conditions: U373 MG, U373MG cells, average of two independent experiments
# Text: as §1, §2
# [9] = test system: human prostate cancer cell line PC3; assay: XTT proliferation assay, PC3; conditions: PC-3, PC3 cells, average of two independent experiments
# Text: as §1, §2
# rat glioma cell line C6 = assay: XTT proliferation assay, C6; conditions: C6 rat glioma cells, average of two independent experiments
# Text: as §1, §2
# [10] = test system: human prostate cancer cell line DU145; assay: XTT proliferation assay, DU145; conditions: DU-145, DU145 cells, average of two independent experiments
# Text: as §1, §2
# [11] = test system: human lung carcinoma cell line A549; assay: XTT proliferation assay, A549; conditions: A549 cells, average of two independent experiments
# Text: as §1, §2
# [12] = test system: lung carcinoma cell line NCI-H460; assay: XTT proliferation assay, NCI-H460; conditions: Homo sapiens; NCI-H460 cells, 45 hours incubation
# Text: as §3, §2
# [13] = test system: human breast cancer cell line T47D; assay: XTT proliferation assay, T47D; conditions: T47D cells, average of two independent experiments
# Text: as §1, §2
# [14] = test system: human pancreas adenocarcinoma cell line ASPC1; assay: XTT proliferation assay, ASPC1; conditions: ASPC1 cells, average of two independent experiments
# Text: as §1, §2
# [15] = test system: human breast cancer cell line MDA MB435; assay: XTT proliferation assay, MDA MB435; conditions: MDA-MB-435, MDA MB435 cells, average of two independent experiments
# Text: as §1, §2
# [16] = test system: RKOp27 human colon carcinoma cells; assay: Cell cycle analysis by means of the RKOp27 model (XTT); conditions: for EC50: Homo sapiens, RKOp27, 45 h
# Text: The substance of Example 2 was investigated in a proliferation test on established tumor cell lines for its anti-proliferative activity. The test used determines the cellular dehydrogenase activity and enables the cell vitality and, indirectly, the cell count to be determined. The cell lines used are the human cervix carcinoma cell line KB/HeLa (ATCC CCL17), the ovarian adenocarcinoma cell line SKOV-3 (ATCC HTB77), the human glioblastoma cell line SF-268 (NCI 503138) and the lung carcinoma cell line NCI-H460 (NCI 503473). Moreover, for investigating the effect of the substance specifically on the cell cycle, an RKOp27 cell system was used (M. Schmidt et al. Oncogene 19(20):2423-9, 2000). The RKO is a human colon carcinoma line, in which the cell cycle inhibitor p27^kip1 was expressed by means of the Ecdyson Expression System and can be brought to a cell cycle arrest in G2. A substance of nonspecific activity inhibits the proliferation independently of whether the RKO cell is or is not arrested in G1 or G2. On the other hand, cell cycle specific substances, such as tubulin inhibitors, are cytotoxic only when the cells are not arrested and passed through the cell cycle. In Table 2, the cytotoxic or growth-inhibiting activity of the compound described is shown with and without expression of p27^kip1.
# as §2, with “curve. The EC50 is calculated from the concentration-activity curve by means of a regression analysis, using the Graphpad Prism program” for “curve.”
structure (smiles),measurement,setting,value
"COc1cc(OC)cc(N2CCN(C(=O)c3c4ccccc4cc4ccccc34)CC2)c1 [Example 2, Anthracene-9-yl-[4-(3,5-dimethoxy-phenyl)-piperazine-1-yl]-methanone]",EC50,[1],0.061 µg/mL
same,EC50,[2],0.048 µg/mL
same,EC50,[3],0.059 µg/mL
same,EC50,[4],0.044 µg/mL
same,EC50,[5],0.046 µg/mL
same,EC50,[6],0.047 µg/mL
same,EC50,[7],0.043 µg/mL
same,EC50,[8],0.057 µg/mL
same,EC50,[9],0.049 µg/mL
same,EC50,rat glioma cell line C6,0.17 µg/mL
same,EC50,[10],0.045 µg/mL
same,EC50,[11],0.066 µg/mL
same,EC50,[12],0.054 µg/mL
same,EC50,[13],0.022 µg/mL
same,EC50,[14],0.11 µg/mL
same,EC50,[15],0.054 µg/mL
same,EC50,"[16]; read-out: XTT Proliferation Assay, EC50 RKOP27",0.058 µg/mL
same,EC50,"[16]; read-out: XTT Proliferation Assay, EC50 RKOP27 ind.",> 3.16 µg/mL
same,cytotoxic activity in the induced state of p27kip1,"[16]; RKOp27 cells, p27kip1 induced",did not show any cytotoxic activity
